Literature values in patent US8097644B2, “Indole compounds having sphingosine-1-phosphate (S1P) receptor antagonist” (Allergan, Inc., priority 2006, dated 2012).

Assays:
[1] = system: perfused porcine eyes; settings: perfused porcine eyes (IOVS 45, 2263; 2004)
[2] = system: cardiac G protein-gated potassium channel IKACh; settings: whole-cell recordings

SMILES	decrease of outflow facility [1] [%]	myocytes responding to acetylcholine in which an inwardly rectifying potassium current was evoked [2] [%]
CCCCCCCCCCCCC/C=C/[C@@H](O)[C@@H](N)COP(=O)(O)O [Example S1P, Sphingosine-1-Phosphate]	> 30	
CCCCCCCCc1ccc(CC[C@](N)(CO)COP(=O)(O)O)cc1 [FTY720-P]		~90
